Each structure is given as a SMILES string. pIC50: −log10 of the molar value. A value given as a limit tells only on which side of the number the result lay.

Experimental findings from patent US20090099167A1, “Organic compounds” (Novartis Institutes for Biomedical Research, priority 2004, published 2009) are described below.

For the test, the target named is T1, human IGF-IR (Homo sapiens, UniProt P08069).
T1 construct: expresses the amino acid region 950-1337 of the mature peptide cytoplasmic domain of the human IGF-IR; made in house; host or cells: baculovirus (Bac-to-Bac)
T1 sequence (P08069 980-1367): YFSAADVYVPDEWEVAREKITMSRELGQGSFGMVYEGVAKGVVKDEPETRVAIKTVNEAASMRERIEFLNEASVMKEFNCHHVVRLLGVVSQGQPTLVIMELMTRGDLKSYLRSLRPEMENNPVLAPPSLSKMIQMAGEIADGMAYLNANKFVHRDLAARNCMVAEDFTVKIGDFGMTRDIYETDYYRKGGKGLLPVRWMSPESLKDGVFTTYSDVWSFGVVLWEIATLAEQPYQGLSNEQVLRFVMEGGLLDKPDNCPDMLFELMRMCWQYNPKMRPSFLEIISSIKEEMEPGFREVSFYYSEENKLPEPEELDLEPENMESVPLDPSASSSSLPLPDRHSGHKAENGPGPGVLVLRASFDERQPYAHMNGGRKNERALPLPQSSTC
In words: IGF-1R tyrosine kinase assay, GST-IGF-1R. In kind it is biochemical. The following applies: Table 5; read-out: IGF-1R, IC50 class. The source says: The inhibition of IGF-1R and Ins-R can be determined as follows: The baculovirus donor vector pfbgx3IGFIRcd is used to generate a recombinant baculovirus that expresses the amino acid region 950-1337 of the mature peptide cytoplasmic domain of the human IGF-IR. To generate the cDNA fragment encoding the amino acid region 919-1343 of the intra-cytoplasmic kinase domain of the human insulin receptor, pC5hInsR is used. The fragments of the human IGF-IR and Ins-R are cloned, expressed and small-scale purified as a factor Xa-cleavable glutathione-S-transferase (GST)-fusion protein using the Bac-to-Bac™ system (GIBCO BRL) of recombinant baculovirus generation. Virus containing media is collected from the transfected cell culture and used for infection to increase its titer. Virus containing media obtained after two rounds of infection is used for large-scale protein expression. Cell extracts are prepared and loaded onto a glutathione-Sepharose (Pharmacia) column. After washing, the GST-tagged proteins are then eluted with a glutathione-containing buffer. Purified protein is stored at −70° C. in elution buffer. Tyrosine protein kinase assays with purified GST-IGF-1R and GST-ins-R are carried in a final volume of 30 μl containing 20 mM Tris-HCl, pH 7.6, 10 mM MgCl2, 0.01 mM Na3VO4, 1% DMSO, 1 mM DTT, 3 μg/ml poly(Glu,Tyr) 4:1 and 10 μM ATP (γ-[^33P]-ATP 0.1 μCi). The assay is performed in 96-well plates at ambient temperature for 20 min and terminated by addition of 25 μl 0.05 M EDTA pH 7.0. An aliquot of 40 μl is spotted with a multichannel dispenser on Whatman P81 membranes mounted in a Millipore Microtiter filter manifold connected to a low vacuum source. After elimination of liquid, the membrane is transferred to a sequence of 4 washing baths containing 0.5% H3PO4 and one with EtOH (shaking incubation for 10 min each), dried, mounted onto a Hewlett Packard TopCount manifold added 10 μl Microscint® and counted. Compounds of formula (I) show up to 90% inhibition of Ins-R at 10,000 nM, preferably between 60-90% inhibition. The inhibition of Tek can be determined as follows: The procedure of the expression, purification and assay these kinases has been described. Fabbro et al., Pharmacol. Ther. 82(2-3) 293-301 (1999). In brief, the glutathione S-transferase (GST) gene from the pAcG1 vector (Pharmingen) is excised with EcoRV and EcoRI and inserted into the cloning site of the Fast-Bac baculoviral vector (GIBCO) creating a 5530 bp vector with N-terminal cloning sites derived from the pAcG1 fusion vector (FBG0). The C-terminal cloning site may be any cloning site (from the Fast-Bac vector) downstream of the N-terminal cloning site used. N-terminally GST-fused (pAcG1, Pharmingen) KDR, Flt-1, Flk-1, Tek and PDGFR-β kinase domains are obtained from ProQinase, Freiburg, Germany. Tek is recloned into the FBG1 vector by EcoRI excision and ligation into EcoRI digested FBG1 (FBG1-Tek). The coding sequences for the whole cytoplasmic domain of c-Kit (aa 544-976) and c-Fms (aa 538-972) are amplified by PCR from human uterus and from human bone marrow cDNA libraries (Clontech), respectively. The amplified DNA fragments are fused to GST by cloning them into FBG1 as BamHI-EcoRI insertions, to yield FBG1-c-Kit and FBG1-c-Fms. Tek is recloned into the FBG0 transfer vector by EcoRI excision and ligation into EcoRI digested FBG0 (FBG-Tie2/Tek). FGFR-1 and c-met kinase domains are obtained by PCR from human A431 cells. N-terminal primers contain an overhanging EcoRI site, while C-terminal primers contain a XhoI site to aid cloning into the transfer vectors. After digestion of both the PCR fragments and FBG0 the cleavage products are gel-purified and ligated together to form the kinase constructs (FBG-Met, FBG-FGFR-1).
By pIC50 is commonly meant −log10 of the IC50, conventionally taken in molar units. In the case of `COc1ccc(-c2cnn3c(N)c(-c4ccc(F)c(Cl)c4)c(C)nc23)cc1OC` [Example 94, 6-(3-Chloro-4-fluoro-phenyl)-3-(3,4-dimethoxy-phenyl)-5-methyl-pyrazolo[1,5-a]pyrimidin-7-ylamine], the pIC50 was below 5.00.
Consider `CN1CCN(c2cccc(-c3cnn4c(N)c(-c5cccc(Br)c5)cnc34)c2)CC1` [Example 86, 6-(3-Bromo-phenyl)-3-[3-(4-methyl-piperazin-1-yl)-phenyl]-pyrazolo[1,5-a]pyrimidin-7-ylamine], for which the negative logarithm of the IC50 (pIC50) is below 5.00.
As for `Cc1nc2c(-c3cccc(N4CCN(C)CC4)c3)cnn2c(N)c1-c1cccc(Cl)c1` [Example 72, 6-(3-Chloro-phenyl)-5-methyl-3-[3-(4-methyl-piperazin-1-yl)-phenyl]-pyrazolo[1,5-a]pyrimidin-7-ylamine], the pIC50 was below 5.00.
For `Cc1nc2c(-c3cccc(N4CCC(N5CCCC5)CC4)c3)cnn2c(N)c1-c1ccc(F)cc1` [Example 103, 6-(4-Fluoro-phenyl)-5-methyl-3-[3-(4-pyrrolidin-1-yl-piperidin-1-yl)-phenyl]-pyrazolo[1,5-a]pyrimidin-7-ylamine] the value was below 5.00.
